Experiment: xn = mol fraction of the nth substance listed
Settings: Liquid

CCCCCl [1-chlorobutane] + CCCCCC
mass density [kg/m3]
Settings	x1 = 0.1099	x1 = 0.212	x1 = 0.2925	x1 = 0.316	x1 = 0.405	x1 = 0.4978	x1 = 0.5975	x1 = 0.6869	x1 = 0.8294	x1 = 0.9025
303.15 K, 15000 kPa	–	–	–	–	–	763.87	786.55	807.83	843.86	863.22
303.15 K, 20000 kPa	689.49	708.98	724.92	729.73	748.24	768.43	791.14	812.44	848.41	867.82
303.15 K, 25000 kPa	693.71	713.22	729.21	733.98	752.58	772.8	795.51	816.83	852.75	872.22
303.15 K, 30000 kPa	697.71	717.27	733.29	738.06	756.71	776.94	799.69	821.01	856.96	876.44
303.15 K, 35000 kPa	701.46	721.06	737.11	741.91	760.56	780.82	803.62	824.94	860.94	880.41
313.15 K, 100 kPa	660.25	679.39	695.16	699.82	718.21	738.18	760.7	781.81	817.54	836.89
313.15 K, 2500 kPa	663.22	682.37	698.14	702.79	721.17	741.14	763.65	784.75	820.43	839.76
313.15 K, 5000 kPa	666.15	685.31	701.06	705.74	724.11	744.08	766.58	787.66	823.33	842.65
313.15 K, 10000 kPa	671.67	690.86	706.6	711.27	729.65	749.65	772.1	793.2	828.82	848.11
313.15 K, 15000 kPa	676.77	695.99	711.76	716.43	734.82	754.83	777.29	798.39	833.99	853.27
313.15 K, 20000 kPa	681.54	700.78	716.6	721.27	739.68	759.7	782.18	803.3	838.9	858.17
313.15 K, 25000 kPa	686.03	705.32	721.16	725.85	744.28	764.34	786.8	807.96	843.57	862.84
313.15 K, 30000 kPa	690.26	709.59	725.44	730.12	748.61	768.68	791.2	812.36	847.97	867.27
313.15 K, 35000 kPa	694.28	713.66	729.55	734.28	752.76	772.87	795.4	816.59	852.24	871.55
323.15 K, 100 kPa	650.68	669.65	685.16	689.81	708	727.88	750.16	771.11	806.56	825.76
323.15 K, 2500 kPa	653.88	672.84	688.38	693.01	711.21	730.97	753.32	774.25	809.67	828.84
323.15 K, 5000 kPa	657.08	676.07	–	–	–	–	–	–	–	–
